≈ marks a conversion by molar mass, not a printed value.
How the values were obtained:
Format in all cases: cell-based
Aeromonas spp. = assay: MIC by agar dilution (NCCLS M7-A4), 288 enteropathogenic isolates, eight quinolones; conditions: Aeromonas spp. (n = 16)
Staphylococcus aureus [1] = assay: MIC by agar dilution (NCCLS), 411 isolates Buenos Aires 1998-99; conditions: for MIC90: Staphylococcus aureus
Enterococcus faecalis = assay: as above; conditions: Enterococcus faecalis (n = 48)
Streptococcus pneumoniae = assay: MIC by NCCLS reference broth microdilution, 450 respiratory tract pathogens; conditions: Streptococcus pneumoniae
Streptococcus pyogenes = assay: as above; conditions: Streptococcus pyogenes
Staphylococcus aureus [2] = assay: as above
Moraxella catarrhalis = assay: MIC by two-fold serial agar dilution, Sensitivity Disk agar-N (Kitasato isolates); conditions: Moraxella catarrhalis (22)
[3] = S. aureus, Methicillin resistant (n = 14)
[4] = S. aureus, Methicillin susceptible (n = 66)
[5] = Streptococcus pneumoniae (n = 100)
[6] = erythromycin resistant M phenotype (n = 16)
[7] = erythromycin resistant MLSB phenotype (n = 16)
[8] = penicillin intermediate (n = 16)
[9] = penicillin susceptible (n = 20)
[10] = Streptococcus pyogenes (n = 100)
[11] = erythromycin resistant C phenotype [MLSB] (n = 20)
[12] = erythromycin resistant I phenotype [MLSB] (n = 20)
[13] = erythromycin resistant M phenotype (n = 20)
[14] = β-lactamase positive and erythromycin resistant (n = 10)

`N[C@@H]1[C@H]2CN(c3nc4c(cc3F)c(=O)c(C(=O)O)cn4-c3ccc(F)cc3F)C[C@@H]12` [Trovafloxacin, trovafloxacin] was tested, and the “% Susceptible” value (Aeromonas spp.) was 100%, the MIC50 (Aeromonas spp.) was no more than 0.015 µg/mL and the MIC90 (Aeromonas spp.) was 0.03 µg/mL (≈ 0.0721 µM). For the same compound, the “MIC Range” value (Aeromonas spp.) was no more than 0.015 to 0.25 µg/mL, the “Resistance (%)” value (Staphylococcus aureus [1]; [3]) was 7% and the “Resistance (%)” value (Staphylococcus aureus [1]; [4]) was 0%. The “MIC Range” value (Staphylococcus aureus [1]; Staphylococcus aureus (n = 80)) was no more than 0.004 to 8 µg/mL, the MIC90 (Staphylococcus aureus [1]; [3]) was 4 µg/mL (≈ 9.61 µM) and the MIC90 (Staphylococcus aureus [1]; [4]) was 0.06 µg/mL (≈ 0.144 µM). For the same compound, the MIC90 (Staphylococcus aureus [1]; Staphylococcus aureus (n = 80)) was 2 µg/mL (≈ 4.8 µM), the MIC90 (Enterococcus faecalis) was 8 µg/mL (≈ 19.2 µM) and the “MIC Range” value (Enterococcus faecalis) was no more than 0.004 to 16 µg/mL. The MIC (Streptococcus pneumoniae; [5]) was 0.03 to 0.25 µg/mL (≈ 0.0721 to 0.6 µM), the MIC50 (Streptococcus pneumoniae; [5]) was 0.12 µg/mL (≈ 0.288 µM) and the MIC90 (Streptococcus pneumoniae; [5]) was 0.12 µg/mL (≈ 0.288 µM). The MIC (Streptococcus pneumoniae; [6]) was 0.06 to 0.12 µg/mL (≈ 0.144 to 0.288 µM), the MIC50 (Streptococcus pneumoniae; [6]) was 0.06 µg/mL (≈ 0.144 µM) and the MIC90 (Streptococcus pneumoniae; [6]) was 0.12 µg/mL (≈ 0.288 µM). For the same compound, the MIC (Streptococcus pneumoniae; [7]) was 0.06 to 0.12 µg/mL (≈ 0.144 to 0.288 µM), the MIC50 (Streptococcus pneumoniae; [7]) was 0.06 µg/mL (≈ 0.144 µM) and the MIC90 (Streptococcus pneumoniae; [7]) was 0.12 µg/mL (≈ 0.288 µM). The MIC (Streptococcus pneumoniae; multi-drug resistant (n = 16)) was 0.06 to 0.12 µg/mL (≈ 0.144 to 0.288 µM), the MIC50 (Streptococcus pneumoniae; multi-drug resistant (n = 16)) was 0.06 µg/mL (≈ 0.144 µM) and the MIC90 (Streptococcus pneumoniae; multi-drug resistant (n = 16)) was 0.12 µg/mL (≈ 0.288 µM). The MIC (Streptococcus pneumoniae; [8]) was 0.06 to 0.12 µg/mL (≈ 0.144 to 0.288 µM), the MIC50 (Streptococcus pneumoniae; [8]) was 0.12 µg/mL (≈ 0.288 µM) and the MIC90 (Streptococcus pneumoniae; [8]) was 0.12 µg/mL (≈ 0.288 µM). For the same compound, the MIC (Streptococcus pneumoniae; penicillin resistant (n = 18)) was 0.06 to 0.25 µg/mL (≈ 0.144 to 0.6 µM), the MIC50 (Streptococcus pneumoniae; penicillin resistant (n = 18)) was 0.12 µg/mL (≈ 0.288 µM) and the MIC90 (Streptococcus pneumoniae; penicillin resistant (n = 18)) was 0.12 µg/mL (≈ 0.288 µM). For the same compound, the MIC (Streptococcus pneumoniae; [9]) was 0.06 to 0.12 µg/mL (≈ 0.144 to 0.288 µM), the MIC50 (Streptococcus pneumoniae; [9]) was 0.12 µg/mL (≈ 0.288 µM) and the MIC90 (Streptococcus pneumoniae; [9]) was 0.12 µg/mL (≈ 0.288 µM). It also gave an MIC (Streptococcus pyogenes; [10]) of 0.03 to 1 µg/mL (≈ 0.0721 to 2.4 µM), an MIC50 (Streptococcus pyogenes; [10]) of 0.12 µg/mL (≈ 0.288 µM) and an MIC90 (Streptococcus pyogenes; [10]) of 0.25 µg/mL (≈ 0.6 µM). It also gave an MIC (Streptococcus pyogenes; [11]) of 0.03 to 0.12 µg/mL (≈ 0.0721 to 0.288 µM), an MIC50 (Streptococcus pyogenes; [11]) of 0.06 µg/mL (≈ 0.144 µM) and an MIC90 (Streptococcus pyogenes; [11]) of 0.12 µg/mL (≈ 0.288 µM). It also gave an MIC (Streptococcus pyogenes; [12]) of 0.06 to 0.5 µg/mL (≈ 0.144 to 1.2 µM), an MIC50 (Streptococcus pyogenes; [12]) of 0.12 µg/mL (≈ 0.288 µM) and an MIC90 (Streptococcus pyogenes; [12]) of 0.5 µg/mL (≈ 1.2 µM). The MIC (Streptococcus pyogenes; [13]) was 0.06 to 0.5 µg/mL (≈ 0.144 to 1.2 µM), the MIC50 (Streptococcus pyogenes; [13]) was 0.12 µg/mL (≈ 0.288 µM) and the MIC90 (Streptococcus pyogenes; [13]) was 0.12 µg/mL (≈ 0.288 µM). The MIC (Streptococcus pyogenes; fully susceptible (n = 20)) was 0.06 to 1 µg/mL (≈ 0.144 to 2.4 µM), the MIC50 (Streptococcus pyogenes; fully susceptible (n = 20)) was 0.12 µg/mL (≈ 0.288 µM) and the MIC90 (Streptococcus pyogenes; fully susceptible (n = 20)) was 0.25 µg/mL (≈ 0.6 µM). For the same compound, the MIC (Streptococcus pyogenes; multi-drug resistant (n = 20)) was 0.12 to 0.25 µg/mL (≈ 0.288 to 0.6 µM), the MIC50 (Streptococcus pyogenes; multi-drug resistant (n = 20)) was 0.12 µg/mL (≈ 0.288 µM) and the MIC90 (Streptococcus pyogenes; multi-drug resistant (n = 20)) was 0.25 µg/mL (≈ 0.6 µM). The MIC (Staphylococcus aureus [2]; Staphylococcus aureus (n = 50)) was 0.00375 to 0.5 µg/mL (≈ 0.00901 to 1.2 µM), the MIC50 (Staphylococcus aureus [2]; Staphylococcus aureus (n = 50)) was 0.12 µg/mL (≈ 0.288 µM) and the MIC90 (Staphylococcus aureus [2]; Staphylococcus aureus (n = 50)) was 0.25 µg/mL (≈ 0.6 µM). For the same compound, the MIC (Staphylococcus aureus [2]; β-lactamase negative (n = 20)) was 0.00375 to 0.25 µg/mL (≈ 0.00901 to 0.6 µM), the MIC50 (Staphylococcus aureus [2]; β-lactamase negative (n = 20)) was 0.12 µg/mL (≈ 0.288 µM) and the MIC90 (Staphylococcus aureus [2]; β-lactamase negative (n = 20)) was 0.25 µg/mL (≈ 0.6 µM). It also gave an MIC (Staphylococcus aureus [2]; β-lactamase positive (n = 20)) of 0.06 to 0.5 µg/mL (≈ 0.144 to 1.2 µM), an MIC50 (Staphylococcus aureus [2]; β-lactamase positive (n = 20)) of 0.12 µg/mL (≈ 0.288 µM) and an MIC90 (Staphylococcus aureus [2]; β-lactamase positive (n = 20)) of 0.25 µg/mL (≈ 0.6 µM). The MIC (Staphylococcus aureus [2]; [14]) was 0.00375 to 0.25 µg/mL (≈ 0.00901 to 0.6 µM), the MIC50 (Staphylococcus aureus [2]; [14]) was 0.12 µg/mL (≈ 0.288 µM) and the MIC90 (Staphylococcus aureus [2]; [14]) was 0.25 µg/mL (≈ 0.6 µM). For the same compound, the MIC50 (Moraxella catarrhalis) was 0.016 µg/mL (≈ 0.0384 µM).

Reference: EP1561465A2, “Methods of use of fluoroquinolone compounds against bacteria” (LG Life Sciences, Ltd., priority 1999, dated 2001)
